In patent US8653024B2, “Use of AMPs for treatment of UTI/cystitis” (Adenium Biotech Aps, priority 2009, dated 2014):
Where “and” joins values, the source holds several entries; their conditions need not be identical. Equal values may be shown once. Entries after “also recorded” stand apart in the source; their conditions may differ.

Tests used:
Escherichia coli DSA 443 [1] = assay: Murine urinary tract infection (UTI) model, Example 1: colony counts in urine, bladder and kidney; assay type: in vivo; conditions: for Bacterial reduction in the urine compared to vehicle treatment: p<0.001; for Mean colony counts + SEM, bladder day 3 / Mean colony counts + SEM, kidney day 3 / Mean colony counts + SEM, urine day 1 / Mean colony counts + SEM, urine day 2 / Mean colony counts + SEM, urine day 3: female OF-1 mice; for Mean colony counts + SEM, urine day 1: day 1 post infection, before first treatment; for Mean colony counts + SEM, urine day 2: day 2 post infection
Escherichia coli DSA 443 [2] = assay: Murine urinary tract infection model, Example 2 (carried out as described in Example 1); assay type: in vivo; conditions: for Bacterial reduction in the kidneys compared to vehicle treatment / Bacterial reduction in the urine compared to vehicle treatment / Bacterial reduction in the bladder compared to vehicle treatment: 10 mg/kg i.v. BID; for Bacterial reduction in the kidneys compared to vehicle treatment: p<0.05; for Effect of treatment compared to Meropenem: 10 mg/kg vs 40 mg/kg Meropenem; for Bacterial reduction in the urine compared to vehicle treatment / Bacterial reduction in the bladder compared to vehicle treatment: after 2 days of treatment; for Bacterial reduction in the urine compared to vehicle treatment: p<0.001; for Bacterial reduction in the bladder compared to vehicle treatment: p<0.01; for Mean colony counts ± SEM, bladder day 3 / Mean colony counts ± SEM, kidney day 3 / Mean colony counts ± SEM, urine day 1 / Mean colony counts ± SEM, urine day 3: mice; for Mean colony counts ± SEM, bladder day 3 / Mean colony counts ± SEM, kidney day 3 / Mean colony counts ± SEM, urine day 3: day 3 post infection; for Mean colony counts ± SEM, urine day 1: day 1 post infection, before first treatment
Description: The efficacy of Arenicin administered BID i.v. days 1 and 2 post infection at a rate of 10 ml/kg to female OF-1 mice (14/group), at a dosage of 10 mg/kg, was assessed against E. coli DSA 443. Treatment with 40 mg/kg Meropenem was included as a positive control and treatment with vehicle was included as a negative control.
Starting on day −4 before inoculation, mice were given drinking water containing 5% glucose. On day 0, the bladder of each mouse was emptied of urine, and each mouse was inoculated with 50 microliters bacteria suspension (E. coli DSA 443 9.3 log10 CFU/ml) via a catheter in the urethra into the bladder.
Urine was sampled from all mice at 24 hours post infection, before the first treatment, and colony counts were determined. 48 and 72 hours post infection, urine was sampled from all mice and kept at room temperature until analyzed. CFU was determined in urine samples within 2-3 hours after sampling. On day 3, mice were sacrificed by cervical dislocation and the bladders and kidneys were collected and stored at −80° C. until analyses. Frozen organs were thawed and homogenized with steel beads on a tissue lyser. All samples, urine, kidney and bladder, were 10 fold diluted in saline and 20 microliter spots were applied on blue agar plates in duplicates. Also undiluted urine (100 microliters if possible) was spread on a separate agar plate to determine the colony counts lowest possible detection level (10 CFU/ml). All agar plates were incubated 18-22 hrs at 35° C. in ambient air.
The CFU numbers are log10 transformed before performing calculations to obtain a normal (or closer to normal) distribution. The data are presented below in Table 1 as mean±SEM. Significance levels were calculated with one-way ANOVA, Dunnett's multiple comparison test and are indicated by the stars in the figures.
The experiment was carried out as described in Example 1.
The efficacies of Variant1 and Variant2 (10 mg/kg) (formulated in Ringer acetate pH 6) were investigated following intravenous (i.v.) administration BID day 1 and day 2 post infection with Escherichia coli DSA 443 (clinical isolate, SSI) in a murine Urinary Tract Infection model. Treatment with 40 mg/kg Meropenem was included as a positive control group.

[3] = 10 mg/kg i.v. BID day 1 and day 2

Q: Which “Effect (CFU reduction) compared to Meropenem” value (Escherichia coli DSA 443 [1]; 10 mg/kg vs 40 mg/kg Meropenem, urine, bladder) does the source give for “Arenicin: antimicrobial polypeptide having the amino acid sequence shown in SEQ ID NO: 1 (GFCWYVCVYRNGVRVCYRRCN; mat_peptide (1)..(21); listed as Arenicola marina)” here?
A: comparable to that of Meropenem; also recorded: comparable to the effect of the Meropenem

Q: And the “Bacterial reduction in the urine compared to vehicle treatment” value (“Bacterial reduction in the urine” below) (Escherichia coli DSA 443 [1]; after 1 day of treatment, 10 mg/kg i.v. BID)?
A: significant bacterial reduction

Q: What about the “Bacterial reduction in the urine” value (Escherichia coli DSA 443 [1]; after 2 days of treatment, 10 mg/kg i.v. BID, 10 mg/kg) of the same compound?
A: significantly (p<0.001) reduced the bacterial loads; also recorded: significant bacterial reduction

Q: And the “Bacterial reduction in the bladder compared to vehicle treatment” value (“Bacterial reduction in the bladder” for short) (Escherichia coli DSA 443 [1]; after 2 days of treatment, 10 mg/kg i.v. BID, p<0.01, 10 mg/kg)?
A: Significant lower (p<0.01) CFU levels; also recorded: significant bacterial reduction

Q: What about the “Bacterial reduction in the kidneys compared to vehicle treatment” value (shortened to “Bacterial reduction in the kidneys”) (Escherichia coli DSA 443 [1]; day 3 post infection, 10 mg/kg i.v. BID, 10 mg/kg) of the same compound?
A: not significantly lower than the vehicle group; also recorded: slight reduction

Q: And the “Mean colony counts + SEM, bladder day 3” value (Escherichia coli DSA 443 [1]; bladder, day 3 post infection, 10 mg/kg i.v. BID days 1 and 2, 10 mg/kg)?
A: 3.8±0.2 log10 CFU

Q: And the “Mean colony counts + SEM, kidney day 3” value (Escherichia coli DSA 443 [1]; day 3 post infection, 10 mg/kg i.v. BID days 1 and 2, 10 mg/kg)?
A: 1.9±0.3 log10 CFU

Q: What about the “Mean colony counts + SEM, urine day 1” value (Escherichia coli DSA 443 [1]; urine, 10 mg/kg group, 10 mg/kg) of the same compound?
A: 6.9±0.3 log10 CFU

Q: What about the “Mean colony counts + SEM, urine day 2” value (Escherichia coli DSA 443 [1]; urine, after one day of treatment, 10 mg/kg i.v. BID, 10 mg/kg) of the same compound?
A: 3.2±0.5 log10 CFU

Q: And the “Mean colony counts + SEM, urine day 3” value (Escherichia coli DSA 443 [1]; urine, day 3 post infection, after completed treatment, 10 mg/kg i.v. BID days 1 and 2, 10 mg/kg)?
A: 2.3±0.3 log10 CFU and 2.3 ± 0.2 log10 CFU

Q: With “Variant2: antimicrobial polypeptide of SEQ ID NO: 3; W4G+Y5H substitution as compared to Arenicin (GFCGHVCVYRNGVRVCYRRCN)” as the compound, how does the “Bacterial reduction in the kidneys” value (Escherichia coli DSA 443 [2]) read?
A: significant bacterial reduction

Q: And the “Effect of treatment compared to Meropenem” value (Escherichia coli DSA 443 [2])?
A: comparable to the effect of treatment with Meropenem

Q: What about the “Bacterial reduction in the urine” value (Escherichia coli DSA 443 [2]) of the same compound?
A: significant bacterial reduction

Q: And the “Bacterial reduction in the bladder” value (Escherichia coli DSA 443 [2])?
A: significant bacterial reduction

Q: What about the “Mean colony counts ± SEM, bladder day 3” value (Escherichia coli DSA 443 [2]; [3]) of the same compound?
A: 3.7 ± 0.5 log10 CFU

Q: And the “Mean colony counts ± SEM, kidney day 3” value (Escherichia coli DSA 443 [2]; [3])?
A: 1.5 ± 0.4 log10 CFU

Q: What about the “Mean colony counts ± SEM, urine day 1” value (Escherichia coli DSA 443 [2]; 10 mg/kg group) of the same compound?
A: 5.7 ± 1.0 log10 CFU

Q: And the “Mean colony counts ± SEM, urine day 3” value (Escherichia coli DSA 443 [2]; [3])?
A: 3.2 ± 0.5 log10 CFU

Q: How did the “Bacterial reduction in the kidneys” value (Escherichia coli DSA 443 [2]) turn out when “Variant1: antimicrobial polypeptide of SEQ ID NO: 2; Y5N+Y17H substitution as compared to Arenicin (SEQ ID NO: 1) (GFCWNVCVYRNGVRVCHRRCN)” was run?
A: significant bacterial reduction

Q: What about the “Effect of treatment compared to Meropenem” value (Escherichia coli DSA 443 [2]) of the same compound?
A: comparable to the effect of treatment with Meropenem

Q: What about the “Bacterial reduction in the urine” value (Escherichia coli DSA 443 [2]) of the same compound?
A: significant bacterial reduction

Q: And the “Bacterial reduction in the bladder” value (Escherichia coli DSA 443 [2])?
A: significant bacterial reduction

Q: What about the “Mean colony counts ± SEM, bladder day 3” value (Escherichia coli DSA 443 [2]; [3]) of the same compound?
A: 3.8 ± 0.4 log10 CFU

Q: And the “Mean colony counts ± SEM, kidney day 3” value (Escherichia coli DSA 443 [2]; [3])?
A: 1.3 ± 0.2 log10 CFU

Q: And the “Mean colony counts ± SEM, urine day 1” value (Escherichia coli DSA 443 [2]; 10 mg/kg group)?
A: 7.1 ± 0.8 log10 CFU

Q: And the “Mean colony counts ± SEM, urine day 3” value (Escherichia coli DSA 443 [2]; [3])?
A: 2.6 ± 0.4 log10 CFU

Q: Which “Bacterial loads in the kidneys compared to vehicle” value (Escherichia coli DSA 443 [1]; 40 mg/kg, day 3 post infection) does the source give for `C[C@@H](O)[C@H]1C(=O)N2C(C(=O)O)=C(S[C@@H]3CN[C@H](C(=O)N(C)C)C3)[C@H](C)[C@H]12` [Meropenem, reference compound] here?
A: slightly, but not significantly, reduced

Q: What about the “Mean colony counts + SEM, bladder day 3” value (Escherichia coli DSA 443 [1]; bladder, day 3 post infection, 40 mg/kg (positive control)) of the same compound?
A: 3.9 ± 0.3 log10 CFU

Q: And the “Mean colony counts + SEM, kidney day 3” value (Escherichia coli DSA 443 [1]; day 3 post infection, 40 mg/kg (positive control))?
A: 1.8 ± 0.3 log10 CFU

Q: And the “Mean colony counts + SEM, urine day 1” value (Escherichia coli DSA 443 [1]; urine, 40 mg/kg group (positive control))?
A: 7.0 ± 0.4 log10 CFU

Q: What about the “Mean colony counts + SEM, urine day 2” value (Escherichia coli DSA 443 [1]; urine, 40 mg/kg (positive control)) of the same compound?
A: 2.7 ± 0.3 log10 CFU

Q: And the “Mean colony counts + SEM, urine day 3” value (Escherichia coli DSA 443 [1]; urine, day 3 post infection, 40 mg/kg (positive control))?
A: 2.1 ± 0.3 log10 CFU

Q: And the “Mean colony counts ± SEM, bladder day 3” value (Escherichia coli DSA 443 [2]; 40 mg/kg (positive control))?
A: 3.9 ± 0.2 log10 CFU

Q: What about the “Mean colony counts ± SEM, kidney day 3” value (Escherichia coli DSA 443 [2]; 40 mg/kg (positive control)) of the same compound?
A: 1.8 ± 0.4 log10 CFU

Q: What about the “Mean colony counts ± SEM, urine day 1” value (Escherichia coli DSA 443 [2]; 40 mg/kg group (positive control)) of the same compound?
A: 6.3 ± 1.0 log10 CFU

Q: What about the “Mean colony counts ± SEM, urine day 3” value (Escherichia coli DSA 443 [2]; 40 mg/kg (positive control)) of the same compound?
A: 1.8 ± 0.4 log10 CFU
